Our source for the relative viability values is the supplement of paper PMC10307832.

Common to all, as to experiment: relative viability (nuclei count vs DMSO), 5 days (fraction); higher = more cells survive
Compound in experiment [1]: COc1cc2nccc(Oc3ccc(NC(=O)C4(C(=O)Nc5ccc(F)cc5)CC4)cc3)c2cc1OC [Cabozantinib] + CC(=O)Nc1cccc(-n2c(=O)n(C3CC3)c(=O)c3c(Nc4ccc(I)cc4F)n(C)c(=O)c(C)c32)c1 [Trametinib] (partner 0.02 µM)
Summed up: (§1)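 A single step with final 0.05% Triton X-100, 1% formaldehyde and 1 ug/ml Hoechst fixed the cells and stained nuclei 5 days after treatment. Lung cancer cell lines in 1536-well plates had been treated by pin tool the day after seeding with one drug alone or a fixed anchor-drug dose plus five library-drug doses (not always all listed) in √10 steps, and nuclei were counted on 4× images. Relative viability is the ratio of nuclei in treated wells to nuclei in vehicle wells, taken as the median of duplicate plates.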

Compound in the experiment “Kobe2602 + Trametinib”: C1=CC(=CC=C1NC(=S)NNC2=C(C=C(C=C2[N+](=O)[O-])C(F)(F)F)[N+](=O)[O-])F [Kobe2602] + CC(=O)Nc1cccc(-n2c(=O)n(C3CC3)c(=O)c3c(Nc4ccc(I)cc4F)n(C)c(=O)c(C)c32)c1 [Trametinib] (partner 0.02 µM)
In outline: as §1

Compound in the experiment “Zosuquidar + Olaparib”: O[C@@H](COc1cccc2ncccc12)CN1CCN([C@@H]2c3ccccc3[C@@H]3[C@H](c4ccccc42)C3(F)F)CC1 [Zosuquidar] + O=C(c1cc(Cc2n[nH]c(=O)c3ccccc23)ccc1F)N1CCN(C(=O)C2CC2)CC1 [Olaparib] (partner 8 µM)
In outline:
as §1

Compound in the experiment “Zosuquidar + AZD7762”: O[C@@H](COc1cccc2ncccc12)CN1CCN([C@@H]2c3ccccc3[C@@H]3[C@H](c4ccccc42)C3(F)F)CC1 [Zosuquidar] + NC(=O)Nc1cc(-c2cccc(F)c2)sc1C(=O)N[C@H]1CCCNC1 [AZD7762] (partner 0.2 µM)
In outline: as §1

With NCI-H2347, the relative viability in experiment [1] (first compound 0.02 µM) stood at 0.252; in experiment [1] (first compound 0.06325 µM), 0.296; in experiment [1] (first compound 0.2 µM), 0.269; in experiment [1] (first compound 0.6325 µM), 0.249; in experiment [1] (first compound 2 µM), 0.268; with Kobe2602 + Trametinib (first compound 0.2 µM) it was 0.291. Further, the relative viability turned out to be 0.251 in the experiment with Kobe2602 + Trametinib (first compound 0.6325 µM); 0.336 with Kobe2602 + Trametinib (first compound 2 µM); 0.304 in the experiment with Kobe2602 + Trametinib (first compound 6.325 µM); 0.326 with Kobe2602 + Trametinib (first compound 20 µM); 0.589 in the experiment with Zosuquidar + Olaparib (first compound 0.01 µM); 0.545 with Zosuquidar + Olaparib (first compound 0.03162 µM). In addition, the relative viability in the experiment with Zosuquidar + Olaparib (first compound 0.1 µM) is 0.579; with Zosuquidar + Olaparib (first compound 0.3162 µM), 0.603; with Zosuquidar + Olaparib (first compound 1 µM), 0.475; with Zosuquidar + AZD7762 (first compound 0.01 µM), 0.701; with Zosuquidar + AZD7762 (first compound 0.03162 µM) it was 0.811; in the experiment with Zosuquidar + AZD7762 (first compound 0.1 µM) it was 0.564. In addition, the figures for the relative viability with Zosuquidar + AZD7762 (first compound 0.3162 µM) and in the experiment with Zosuquidar + AZD7762 (first compound 1 µM) were 0.808 and 0.764, respectively.
On to NCI-H2405, for which the relative viability in experiment [1] (first compound 0.02 µM) worked out at 0.658; in experiment [1] (first compound 0.06325 µM), 0.666; in experiment [1] (first compound 0.2 µM), 0.615; in experiment [1] (first compound 0.6325 µM), 0.59; in experiment [1] (first compound 2 µM), 0.473; with Kobe2602 + Trametinib (first compound 0.2 µM), 0.644. The relative viability with Kobe2602 + Trametinib (first compound 0.6325 µM) was found to be 0.712; with Kobe2602 + Trametinib (first compound 2 µM), 0.621; in the experiment with Kobe2602 + Trametinib (first compound 6.325 µM) it was 0.66; in the experiment with Kobe2602 + Trametinib (first compound 20 µM), 0.669; with Zosuquidar + Olaparib (first compound 0.01 µM), 0.903; in the experiment with Zosuquidar + Olaparib (first compound 0.03162 µM), 0.758. The relative viability in the experiment with Zosuquidar + Olaparib (first compound 0.1 µM) came to 0.756; with Zosuquidar + Olaparib (first compound 0.3162 µM) it was 0.95; with Zosuquidar + Olaparib (first compound 1 µM), 0.829; in the experiment with Zosuquidar + AZD7762 (first compound 0.01 µM), 0.691; in the experiment with Zosuquidar + AZD7762 (first compound 0.03162 µM), 0.714; in the experiment with Zosuquidar + AZD7762 (first compound 0.1 µM) it was 0.766. Also, the results for the relative viability with Zosuquidar + AZD7762 (first compound 0.3162 µM) and with Zosuquidar + AZD7762 (first compound 1 µM) were 0.739 and 0.539, respectively.
For the cell line NCI-H3122, the relative viability came out at 0.192 in experiment [1] (first compound 0.02 µM); 0.241 in experiment [1] (first compound 0.06325 µM); 0.238 in experiment [1] (first compound 0.2 µM); 0.238 in experiment [1] (first compound 0.6325 µM); 0.281 in experiment [1] (first compound 2 µM); 0.257 with Kobe2602 + Trametinib (first compound 0.2 µM). Further, the relative viability is 0.242 in the experiment with Kobe2602 + Trametinib (first compound 0.6325 µM); 0.211 with Kobe2602 + Trametinib (first compound 2 µM); 0.214 in the experiment with Kobe2602 + Trametinib (first compound 6.325 µM); 0.238 with Kobe2602 + Trametinib (first compound 20 µM); 0.606 with Zosuquidar + Olaparib (first compound 0.01 µM); 0.608 with Zosuquidar + Olaparib (first compound 0.03162 µM). Moreover, the relative viability with Zosuquidar + Olaparib (first compound 0.1 µM) turned out to be 0.565; in the experiment with Zosuquidar + Olaparib (first compound 0.3162 µM), 0.621; in the experiment with Zosuquidar + Olaparib (first compound 1 µM) it was 0.637; with Zosuquidar + AZD7762 (first compound 0.01 µM) it was 0.812; in the experiment with Zosuquidar + AZD7762 (first compound 0.03162 µM), 0.916; in the experiment with Zosuquidar + AZD7762 (first compound 0.1 µM), 0.844. Further, the relative viability with Zosuquidar + AZD7762 (first compound 0.3162 µM) amounted to 1.01; with Zosuquidar + AZD7762 (first compound 1 µM), 1.
With PC-3 [JPC-3], the relative viability amounted to 0.696 in experiment [1] (first compound 0.02 µM); 0.755 in experiment [1] (first compound 0.06325 µM); 0.736 in experiment [1] (first compound 0.6325 µM); 0.739 in experiment [1] (first compound 2 µM); 0.69 in the experiment with Kobe2602 + Trametinib (first compound 0.2 µM); 0.699 with Kobe2602 + Trametinib (first compound 0.6325 µM). Also, the relative viability worked out at 0.7 in the experiment with Kobe2602 + Trametinib (first compound 2 µM); 0.683 with Kobe2602 + Trametinib (first compound 6.325 µM); 0.668 with Kobe2602 + Trametinib (first compound 20 µM); 1.09 with Zosuquidar + Olaparib (first compound 0.01 µM); 1.18 with Zosuquidar + Olaparib (first compound 0.03162 µM); 0.873 with Zosuquidar + Olaparib (first compound 0.1 µM). The relative viability is 1.09 with Zosuquidar + Olaparib (first compound 0.3162 µM); 1.1 with Zosuquidar + Olaparib (first compound 1 µM); 0.78 with Zosuquidar + AZD7762 (first compound 0.01 µM); 0.9 with Zosuquidar + AZD7762 (first compound 0.03162 µM); 0.648 with Zosuquidar + AZD7762 (first compound 0.1 µM); 0.836 in the experiment with Zosuquidar + AZD7762 (first compound 0.3162 µM). Also, the relative viability with Zosuquidar + AZD7762 (first compound 1 µM) was 0.524.
Turning to PC-14, the relative viability worked out at 0.81 in experiment [1] (first compound 0.02 µM); 0.955 in experiment [1] (first compound 0.06325 µM); 0.755 in experiment [1] (first compound 0.6325 µM); 0.685 in experiment [1] (first compound 2 µM); 0.697 with Kobe2602 + Trametinib (first compound 0.2 µM); 0.693 with Kobe2602 + Trametinib (first compound 0.6325 µM). Further, the relative viability with Kobe2602 + Trametinib (first compound 2 µM) was 0.659; with Kobe2602 + Trametinib (first compound 6.325 µM), 0.823; in the experiment with Kobe2602 + Trametinib (first compound 20 µM), 0.361; with Zosuquidar + Olaparib (first compound 0.01 µM), 0.26; with Zosuquidar + Olaparib (first compound 0.03162 µM) it was 0.319; with Zosuquidar + Olaparib (first compound 0.1 µM) it was 0.205. The relative viability in the experiment with Zosuquidar + Olaparib (first compound 0.3162 µM) worked out at 0.307; with Zosuquidar + Olaparib (first compound 1 µM), 0.179; with Zosuquidar + AZD7762 (first compound 0.01 µM), 0.3; with Zosuquidar + AZD7762 (first compound 0.03162 µM), 0.372; with Zosuquidar + AZD7762 (first compound 0.1 µM), 0.314; with Zosuquidar + AZD7762 (first compound 0.3162 µM), 0.363. In the experiment with Zosuquidar + AZD7762 (first compound 1 µM), the relative viability was found to be 0.344.
For the cell line RERF-LC-KJ, the relative viability was found to be 0.948 in experiment [1] (first compound 0.02 µM); 0.815 in experiment [1] (first compound 0.06325 µM); 0.781 in experiment [1] (first compound 0.2 µM); 0.811 in experiment [1] (first compound 0.6325 µM); 0.928 in experiment [1] (first compound 2 µM); 0.839 with Kobe2602 + Trametinib (first compound 0.2 µM). For the same cell line, the relative viability with Kobe2602 + Trametinib (first compound 0.6325 µM) was 0.836; with Kobe2602 + Trametinib (first compound 2 µM), 0.864; in the experiment with Kobe2602 + Trametinib (first compound 6.325 µM), 0.802; in the experiment with Kobe2602 + Trametinib (first compound 20 µM), 0.525; with Zosuquidar + Olaparib (first compound 0.01 µM), 0.802; with Zosuquidar + Olaparib (first compound 0.03162 µM) it was 0.985. Moreover, the relative viability in the experiment with Zosuquidar + Olaparib (first compound 0.1 µM) is 0.878; with Zosuquidar + Olaparib (first compound 0.3162 µM) it was 1.01; in the experiment with Zosuquidar + Olaparib (first compound 1 µM), 0.855; with Zosuquidar + AZD7762 (first compound 0.01 µM), 1.02; with Zosuquidar + AZD7762 (first compound 0.03162 µM), 0.882; with Zosuquidar + AZD7762 (first compound 0.1 µM), 0.895. For the same cell line, the values for the relative viability with Zosuquidar + AZD7762 (first compound 0.3162 µM) and with Zosuquidar + AZD7762 (first compound 1 µM) were 1.05 and 0.811, respectively.
As for SW 900, the relative viability in experiment [1] (first compound 0.02 µM) turned out to be 0.978; in experiment [1] (first compound 0.06325 µM), 0.841; in experiment [1] (first compound 0.2 µM), 0.611; in experiment [1] (first compound 0.6325 µM) it was 0.955; in experiment [1] (first compound 2 µM), 0.852; with Kobe2602 + Trametinib (first compound 0.2 µM), 0.959. The relative viability with Kobe2602 + Trametinib (first compound 0.6325 µM) is 0.745; with Kobe2602 + Trametinib (first compound 2 µM) it was 0.807; in the experiment with Kobe2602 + Trametinib (first compound 6.325 µM), 0.677; in the experiment with Kobe2602 + Trametinib (first compound 20 µM) it was 0.548; in the experiment with Zosuquidar + Olaparib (first compound 0.01 µM) it was 0.853; with Zosuquidar + Olaparib (first compound 0.03162 µM) it was 0.93. For the same cell line, the relative viability amounted to 1.06 with Zosuquidar + Olaparib (first compound 0.3162 µM); 0.838 with Zosuquidar + Olaparib (first compound 1 µM); 0.597 with Zosuquidar + AZD7762 (first compound 0.01 µM); 0.782 with Zosuquidar + AZD7762 (first compound 0.03162 µM); 0.668 with Zosuquidar + AZD7762 (first compound 0.3162 µM); 0.636 with Zosuquidar + AZD7762 (first compound 1 µM).
